“Also recorded” adds a separate entry of the source.
Legend:
[1] = tested on: ECC-1 endometrial cancer cells; experiment: ECC-1 endometrial cancer cell proliferation assay ([3H]thymidine incorporation); assay type: cell-based, human; conditions: for genistein-induced cell proliferation: stimulated by genistein at 1 MM (FIG. 4); for cell proliferation ([3H]thymidine incorporation into DNA): 0.4 and 4 μM, after three days (FIG. 1, panel A); for inhibition of cell proliferation: higher, non-physiological concentrations (10 μM), after three days in culture (FIG. 1, panel A); for effect on endometrial cancer cell growth over the concentration range: increasing concentrations, low to high
Description: (§1) Tetrahydrofuran (THF) containing 0.25% butylated hydroxytoluene was added to purified carotenoids as an antioxidant. Carotenoids were dissolved in THF at a concentration of 2 mMM and stored at −70 C. Immediately before use, stock solutions were thawed and added to the cell culture medium under nitrogen, followed by vigorous stirring. Precipitates formed were removed by filtration through Millex-HV filter (Millipore). Final carotenoid concentrations in the medium were determined by spectrophotometry after extraction in 2-propanol and n-hexane:dichloronomethane, as in U.S. Pat. No. 5,827,900.
(§2) The human endometrial cancer (estrogen dependent) cell line ECC-1 was developed by Dr. P. G. Satyaswaroop, Pennslyvania State University, Pennsylvania, U.S.A, and generously provided to us by Dr. R. Oregan, Northwestern University, Chicago, Ill., U.S.A. Human mammary cancer cell lines MCF-7 (estrogen dependent) and MDA-231 (hormone independent) were obtained from the American Type Culture Collection (Rockville, Md.).
(§3) Cells were cultured in DMEMM containing penicillin (100 U/ml), streptomycin (0.1 mg/ml)) nystatin (12.5 (g/ml), insulin (0.6 (g/ml), and 10% FCS. Cells were stripped of endogenous steroids according to the procedure of Vignon et al. (1987, Biochem. Biophys. Res. Comm., 146:1502–8) by successive passages in medium without phenol red containing 10% and then 3% of charcoal-stripped FCS. Cells were seeded into 96 multiwell plates (5,000 cells per well) in DMEMM containing 3% of charcoal-stripped FCS. After one day the medium was changed to one containing the solubilized carotenoid or THF alone. The medium was changed daily to ensure a continuous supply of carotenoid.
(§4) After incubation, the number of cells and the rate of cell proliferation were estimated by the incorporation of [^3H]thymidine incorporation into cellular DNA, as described in U.S. Pat. No. 5,827,900. Cell growth was also measured by direct cell counting with a Coulter counter after trypsinization and dilution in Isotone-II (Coulter Electronics, Luton, England). A good correlation was found between the two methods.
ECC-1 cells were incubated with increasing concentrations of the isoflavones genistein and daidzein, the two primary isoflavones in soy products, and with soy extract. Cell proliferation after three days was measured by [^3H]thymidine incorporation into DNA (FIG. 1, panel A).
ECC-1 cells were also incubated with a single high concentration (40 μM) of each of genistein, daidzein and soy extract. Cell proliferation was assayed daily over the course of three days.
(§5) The comparative effects of estradiol and genistein supplementation on the proliferation of the hormone-dependent cell lines MCF-7 mammary cancer and ECC-1 endometrial cancer were examined (FIG. 2).
(§6) Cell cultures stimulated either by genistein or estradiol, as described above, were further supplemented with lycopene and assayed for cell proliferation after three days in culture.
The ECC-1 hormone-dependent cell line was stimulated either by estradiol at 10 nM (FIG. 4, left panel) or by genistein at 1 MM (FIG. 4, panel B) and test cultures were additionally supplemented with various carotenoids.
The hormone-dependent endometrial cancer cell line ECC-1 was stimulated either by estradiol at 10 nM (FIG. 5, left panel) or by genistein at 1 μM (FIG. 5, right panel) and test cultures were additionally supplemented with various concentrations of lycopene. […] The lowest lycopene concentration tested (0.9 μM) is in the physiological range found in human serum.

[2] = tested on: rodent models (rat colon and oral carcinogenesis); conditions: dietary administration; cited from earlier work
[3] = tested on: estrogen receptor negative human breast cancer cell lines; conditions: approximately 0.1 to 2–3 μM; cited from earlier work
[4] = tested on: estrogen receptor-positive human breast cancer cell lines; conditions: approximately 0.1 to 2–3 μM; cited from earlier work
[5] = tested on: MCF-7 mammary cancer cells (estrogen dependent); experiment: MCF-7 mammary cancer cell proliferation assay ([3H]thymidine incorporation); assay type: cell-based, human; conditions: for phytoestrogen-induced cell proliferation: genistein (4 (M))
Description: as §1, §2, §3, §4, §5, §6
Thus genistein not only stimulates hormone-dependent cancer cell proliferation, but IGF-I as well as other growth factors further augment this effect.
Cell cultures supplemented as above were further supplemented with lycopene at 3 to 5 μM concentration.

[6] = tested on: MDA-231 mammary cancer cells (hormone independent); experiment: MDA-231 mammary cancer cell proliferation assay ([3H]thymidine incorporation); assay type: cell-based, human
Description: as §1, §2, §3
as §4, with “methods. […]” for “methods.”

[7] = single high concentration (40 μM), after one day of incubation (FIG. 1, panel B)
[8] = lycopene at 3 to 5 μM, three days in culture (FIG. 2)
[9] = high, non-physiological carotenoid concentrations, about one order of magnitude greater than physiological (FIG. 6, panel B)
[10] = lycopene at 3 to 5 μM, IGF-1 30 nM (FIG. 3)

CC1=C(/C=C/C(C)=C/C=C/C(C)=C/C=C/C=C(C)/C=C/C=C(C)/C=C/C2=C(C)C(=O)[C@@H](O)CC2(C)C)C(C)(C)C[C@H](O)C1=O [astaxanthin]
genistein-induced cell proliferation [1]: effective inhibitors; also recorded: effectively inhibited
anti-tumorigenic effects in vivo [2]: anti-tumorigenic effects

CC1=C(/C=C/C(C)=C/C=C/C(C)=C/C=C/C=C(C)/C=C/C=C(C)/C=C/C2=C(C)CCCC2(C)C)C(C)(C)CCC1 [beta-carotene]
genistein-induced cell proliferation [1]: effective inhibitors; also recorded: effectively inhibited

COc1ccc(-c2coc3cc(O)cc(O)c3c2=O)cc1 [biochanin A]
cell proliferation [3]: not in estrogen receptor negative
cell proliferation [4]: induce cell proliferation

O=c1oc2cc(O)ccc2c2oc3cc(O)ccc3c12 [counestrol]
cell proliferation [3]: not in estrogen receptor negative
cell proliferation [4]: induce cell proliferation

O=c1c(-c2ccc(O)cc2)coc2cc(O)ccc12 [daidzein, reference compound]
cell proliferation ([3H]thymidine incorporation into DNA) [1]: significant increase in cell proliferation rate; also recorded: stimulated cell proliferation
inhibition of cell proliferation [1]: not
effect on endometrial cancer cell growth over the concentration range [1]: only stimulatory
cell proliferation [1, 7]: significantly increases cell proliferation; also recorded: stimulated cell proliferation

O=c1c(-c2ccc(O)cc2)coc2cc(O)cc(O)c12 [genistein, reference compound]
cell proliferation ([1]; 40 μM, by the second day in culture (FIG. 1, panel B)): inhibitory effects
cell proliferation ([3H]thymidine incorporation into DNA) [1]: significant increase in cell proliferation rate; also recorded: stimulated cell proliferation
inhibition of cell proliferation [1]: inhibited cell proliferation
effect on endometrial cancer cell growth over the concentration range [1]: biphasic effects on proliferation
cell proliferation [1, 7]: significantly increases cell proliferation; also recorded: stimulated cell proliferation
stimulatory effect of genistein in the presence of IGF-I ([5]; genistein plus IGF-1 30 nM, compared to genistein only (FIG. 3, panel A)): significantly increases the cell proliferation rate; also recorded: further augmented
effect on proliferation over the concentration range ([5]; stimulating at low, inhibiting at high concentrations (FIG. 2, panel A)): biphasic effects on proliferation
cell proliferation [3]: not in estrogen receptor negative
cell proliferation [4]: induce cell proliferation

O=c1c(O)c(-c2ccc(O)cc2)oc2cc(O)cc(O)c12 [kaempferl]
cell proliferation [3]: not in estrogen receptor negative
cell proliferation [4]: induce cell proliferation

O=c1cc(-c2ccc(O)c(O)c2)oc2cc(O)cc(O)c12 [luiolin]
cell proliferation [3]: not in estrogen receptor negative
cell proliferation [4]: induce cell proliferation

CC(C)=CCC/C(C)=C/C=C/C(C)=C/C=C/C(C)=C/C=C/C=C(C)/C=C/C=C(C)/C=C/C=C(\C)CCC=C(C)C [lycopene]
estradiol-induced cell proliferation, dose dependence ([1]; estradiol at 10 nM, various lycopene concentrations, lowest 0.9 μM (FIG. 5)): inhibits, in a dose dependent manner; also recorded: effective in inhibiting
genistein-induced cell proliferation, dose dependence ([1]; genistein at 1 μM, various lycopene concentrations, lowest 0.9 μM (FIG. 5)): inhibits, in a dose dependent manner; also recorded: effective in inhibiting
basal growth [1, 8]: significantly inhibited
estradiol-induced growth [1, 8]: significantly inhibited
genistein-induced growth [1, 8]: substantially inhibited; also recorded: significantly inhibited
genistein-induced cell proliferation [1]: effective inhibitors; also recorded: effectively inhibited
phytoestrogen-induced cell proliferation [5, 9]: effective in significantly inhibiting
phytoestrogen-induced cell proliferation ([5]; low (physiological) concentrations: lycopene 0.4 μM, phytoene and phytofluene mixture 6 μM (FIG. 6, panel A)): do not significantly affect
basal growth [5, 8]: significantly inhibited
estradiol-induced growth [5, 8]: significantly inhibited
IGF stimulation of cell proliferation (IGF-1 and genistein) [5, 10]: inhibits the cell proliferation; also recorded: inhibits IGF stimulation
genistein-induced growth ([5]; lycopene at 3 to 5 MM, three days in culture (FIG. 2)): substantially inhibited; also recorded: significantly inhibited
IGF stimulation of cell proliferation [6, 10]: inhibits IGF stimulation
cell proliferation relative to controls [6, 10]: reduced to levels less than that of controls

CC(C)=CCC/C(C)=C/CC/C(C)=C/CC/C(C)=C/C=C/C=C(\C)CC/C=C(\C)CC/C=C(\C)CCC=C(C)C [phytoene]
genistein-induced cell proliferation [1]: effective inhibitors
phytoestrogen-induced cell proliferation [5, 9]: effective in significantly inhibiting

IGF-1: Human recombinant IGF-1 purchased from GroPep
cell growth ([5]; IGF-1 30 nM (FIG. 3, panel A)): significantly stimulates cell growth
cell growth ([6]; IGF-1 30 nM (FIG. 3, panel B)): significantly stimulates cell growth

— patent US7144586B2, “Compositions for preventing hormone induced adverse effects” (Lycored Natural Products Industries Ltd., priority 2000, dated 2006)
